Data taken from US8753875B2, “Compositions and means for diagnosing microbial infections” (priority 2007, dated 2014).
Like-named read-outs stand apart in the source and are kept apart here.

Legend:
Candida spp. = experiment: Growth on Flexicult plate, susceptibility/resistance to the five antibiotics (FIG. 4, Table A); format: cell-based
Text: (§1) The kit was developed for urine culture in the primary health care setting. It is designed preferably as a nine cm Petri dish divided into six compartments: One larger compartment for quantitative analysis and five smaller compartments for susceptibility testing. The agar in each small compartment contains one of five antimicrobials (for Denmark and Scandinavia preferably: trimethoprim, sulfamethizole, ampicillin, nitrofurantoin and mecillinam (amdinocillin)) at a concentration adjusted to the breakpoint, such that growth in these compartments indicates resistance, and no growth indicates susceptibility. The Petri dish preferably has higher sides, approximately 2.48 cm, than the usual dish, i.e. ca. 1.48 cm. This allows a larger amount, maximum 100 ml, of urine to be poured onto the dish for inoculation.
(§2) Reading the susceptibility of the bacterial growth: Each bacterium (if more than one) is read individually: The growth in each of the antibiotic fields is compared with the growth on the control agar. […] If there is no growth (or substantially less than the control agar), then the bacterium is considered to be susceptible to the antibiotic. […] When nitrofurantoin and mecillinam are used as antibiotics, a few single colonies may be seen of the same type as the bacterium on the control agar: These are not considered to be resistant mutants but “persisters,” i.e. if retested they will appear susceptible. This is commonly seen also by disc diffusion especially for mecillinam.

Citrobacter spp. = experiment: as above; format: cell-based
Text: as §1, §2

E. coli [1] = experiment: as above; format: cell-based
Text: as §1, §2

E. faecalis [2] = experiment: as above; format: cell-based
Text: as §1, §2

E. faecium [3] = experiment: as above; format: cell-based
Text: as §1, §2

Enterobacter spp = experiment: as above; format: cell-based
Text: as §1, §2

Klebsiella spp. = experiment: as above; format: cell-based
Text: as §1, §2

Morganella spp. = experiment: as above; format: cell-based
Text: as §1, §2

P. aureginosa = experiment: as above; format: cell-based
Text: as §1, §2

P. vulgaris [4] = experiment: as above; format: cell-based
Text: as §1, §2

Proteus mirabilis = experiment: as above; format: cell-based
Text: as §1, §2

S. saprophyticus [5] = experiment: as above; format: cell-based
Text: as §1, §2

E. coli [6] = experiment: Growth of E. coli in antibiotic compartments of the platform (FIG. 3); format: cell-based; details: illustrated E. coli of FIG. 3
Text: The photos show growth of E. coli at different quantities of bacteria/ml urine.

E. coli [7] = system: E. coli; parameters: key: Susceptible = S; Resistant = R; details: cited from earlier work
Citrobacter = system: Citrobacter; parameters: key: Susceptible = S; Resistant = R; details: cited from earlier work
Klebsiella = system: Klebsiella; parameters: key: Susceptible = S; Resistant = R; details: cited from earlier work
Enterobacter = system: Enterobacter; parameters: key: Susceptible = S; Resistant = R; details: cited from earlier work
P. mirabilis = system: P. mirabilis; parameters: key: Susceptible = S; Resistant = R; details: cited from earlier work
P. vulgaris [8] = system: P. vulgaris; parameters: key: Susceptible = S; Resistant = R; details: cited from earlier work
Morganella = system: Morganella; parameters: key: Susceptible = S; Resistant = R; details: cited from earlier work
S. saprophyticus [9] = system: S. saprophyticus; parameters: key: Susceptible = S; Resistant = R; details: cited from earlier work
E. faecalis [10] = system: E. faecalis; parameters: key: Susceptible = S; Resistant = R; details: cited from earlier work
E. faecium [11] = system: E. faecium; parameters: key: Susceptible = S; Resistant = R; details: cited from earlier work
S. agalactiae = system: S. agalactiae; parameters: key: Susceptible = S; Resistant = R; details: cited from earlier work
Pseud. Aeruginosa = system: Pseud. Aeruginosa; parameters: key: Susceptible = S; Resistant = R; details: cited from earlier work
Candida sp. = system: Candida sp.; parameters: key: Susceptible = S; Resistant = R; details: cited from earlier work
E. coli [12] = details: cited from earlier work

COc1cc(Cc2cnc(N)nc2N)cc(OC)c1OC [Trimethoprim, S-(3,4,5-trimethoxybenzyl)pyrimidine-2,4-diamine]
Susceptibility = S or Resistance = R (Candida spp.): R | Susceptibility = S or Resistance = R (Citrobacter spp.): S | Susceptibility = S or Resistance = R (E. coli [1]): S | Susceptibility = S or Resistance = R (E. faecalis [2]): S | Susceptibility = S or Resistance = R (E. faecium [3]): S | Susceptibility = S or Resistance = R (Enterobacter spp): S | Susceptibility = S or Resistance = R (Klebsiella spp.): S | Susceptibility = S or Resistance = R (Morganella spp.): S | Susceptibility = S or Resistance = R (P. aureginosa): R | Susceptibility = S or Resistance = R (P. vulgaris [4]): S | Susceptibility = S or Resistance = R (Proteus mirabilis): S | Susceptibility = S or Resistance = R (S. saprophyticus [5]): S | resistant or susceptible (growth in antibiotic compartment) (E. coli [6]): susceptible | Normal susceptibility/resistance (E. coli [7]): S | Normal susceptibility/resistance (Citrobacter): S | Normal susceptibility/resistance (Klebsiella): S | Normal susceptibility/resistance (Enterobacter): S | Normal susceptibility/resistance (P. mirabilis): S | Normal susceptibility/resistance (P. vulgaris [8]): S | Normal susceptibility/resistance (Morganella): S | Normal susceptibility/resistance (S. saprophyticus [9]): S | Normal susceptibility/resistance (E. faecalis [10]): S | Normal susceptibility/resistance (E. faecium [11]): S | Normal susceptibility/resistance (S. agalactiae): S | Normal susceptibility/resistance (Pseud. Aeruginosa): R | Normal susceptibility/resistance (Candida sp.): R | Antimicrobial resistance of E. coli (resistance in percent) (E. coli [12]; Austria, n 126): 9.5% | Antimicrobial resistance of E. coli (resistance in percent) (E. coli [12]; Belgium, n 137): 13.9% | Antimicrobial resistance of E. coli (resistance in percent) (E. coli [12]; Canada, n 166): 10.8% | Antimicrobial resistance of E. coli (resistance in percent) (E. coli [12]; Denmark, n 85): 10.6% | Antimicrobial resistance of E. coli (resistance in percent) (E. coli [12]; Finland, n 182): 5.5% | Antimicrobial resistance of E. coli (resistance in percent) (E. coli [12]; France, n 199): 15.6% | Antimicrobial resistance of E. coli (resistance in percent) (E. coli [12]; Germany, n 138): 22.5% | Antimicrobial resistance of E. coli (resistance in percent) (E. coli [12]; Greece, n 132): 13.6% | Antimicrobial resistance of E. coli (resistance in percent) (E. coli [12]; Ireland, n 154): 22.1% | Antimicrobial resistance of E. coli (resistance in percent) (E. coli [12]; Luxembourg, n 24): 16.7% | Antimicrobial resistance of E. coli (resistance in percent) (E. coli [12]; Norway, n 168): 13.1% | Antimicrobial resistance of E. coli (resistance in percent) (E. coli [12]; Portugal, n 86): 26.7% | Antimicrobial resistance of E. coli (resistance in percent) (E. coli [12]; Spain, n 191): 25.1% | Antimicrobial resistance of E. coli (resistance in percent) (E. coli [12]; Sweden, n 193): 8.8% | Antimicrobial resistance of E. coli (resistance in percent) (E. coli [12]; Switzerland, n 122): 18.9% | Antimicrobial resistance of E. coli (resistance in percent) (E. coli [12]; The Netherlands, n 195): 12.3% | Antimicrobial resistance of E. coli (resistance in percent) (E. coli [12]; Total, n 2478): 14.8% | Antimicrobial resistance of E. coli (resistance in percent) (E. coli [12]; United Kingdom, n 180): 13.3%
